Source: ChEMBL document CHEMBL4507291 (2021)

Experiments:
[1] = biological target: T1, Activin receptor type-1 (Homo sapiens) (UniProt Q04771)
T1 sequence (whole entry): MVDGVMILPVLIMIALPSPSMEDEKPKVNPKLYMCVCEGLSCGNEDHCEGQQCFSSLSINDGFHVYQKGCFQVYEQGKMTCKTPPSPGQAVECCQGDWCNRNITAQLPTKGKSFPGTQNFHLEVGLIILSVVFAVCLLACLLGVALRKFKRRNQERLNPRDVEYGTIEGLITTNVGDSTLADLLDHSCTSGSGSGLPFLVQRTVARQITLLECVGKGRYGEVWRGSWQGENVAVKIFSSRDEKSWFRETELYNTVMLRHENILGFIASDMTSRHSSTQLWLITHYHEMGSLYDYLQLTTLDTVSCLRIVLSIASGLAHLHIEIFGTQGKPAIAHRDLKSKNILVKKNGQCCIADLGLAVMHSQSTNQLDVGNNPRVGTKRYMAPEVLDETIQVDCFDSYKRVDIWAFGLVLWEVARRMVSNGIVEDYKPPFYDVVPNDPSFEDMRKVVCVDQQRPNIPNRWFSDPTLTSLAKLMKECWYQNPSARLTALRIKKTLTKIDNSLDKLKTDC

[2] = system: Phosphatidylinositol 4,5-bisphosphate 3-kinase catalytic subunit alpha isoform (Homo sapiens), P42336 [E545A]
[3] = system: eIF-2-alpha kinase GCN2 (Homo sapiens), Q9P2K8 [S808G]
[4] = biological target: Calcium/calmodulin-dependent protein kinase type 1G (Homo sapiens) (UniProt Q96NX5)
[5] = biological target: T2, Serine/threonine-protein kinase 4 (Homo sapiens) (UniProt Q13043)
T2 sequence (whole entry): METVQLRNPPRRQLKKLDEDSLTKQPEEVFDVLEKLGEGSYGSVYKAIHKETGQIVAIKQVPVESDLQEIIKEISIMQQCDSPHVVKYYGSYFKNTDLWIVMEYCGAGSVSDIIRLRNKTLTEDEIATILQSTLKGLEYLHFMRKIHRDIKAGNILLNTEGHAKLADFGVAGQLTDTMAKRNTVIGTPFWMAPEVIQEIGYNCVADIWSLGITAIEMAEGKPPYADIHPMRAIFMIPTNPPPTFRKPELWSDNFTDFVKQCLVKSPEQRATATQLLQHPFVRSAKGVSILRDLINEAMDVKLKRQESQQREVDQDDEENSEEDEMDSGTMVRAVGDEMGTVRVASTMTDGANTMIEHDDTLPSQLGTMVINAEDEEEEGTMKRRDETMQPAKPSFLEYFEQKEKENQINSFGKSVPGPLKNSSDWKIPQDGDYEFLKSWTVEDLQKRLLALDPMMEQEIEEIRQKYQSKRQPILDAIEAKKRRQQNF

[6] = biological target: T3, Serine/threonine-protein kinase NLK (Homo sapiens) (UniProt Q9UBE8)
T3 sequence (whole entry): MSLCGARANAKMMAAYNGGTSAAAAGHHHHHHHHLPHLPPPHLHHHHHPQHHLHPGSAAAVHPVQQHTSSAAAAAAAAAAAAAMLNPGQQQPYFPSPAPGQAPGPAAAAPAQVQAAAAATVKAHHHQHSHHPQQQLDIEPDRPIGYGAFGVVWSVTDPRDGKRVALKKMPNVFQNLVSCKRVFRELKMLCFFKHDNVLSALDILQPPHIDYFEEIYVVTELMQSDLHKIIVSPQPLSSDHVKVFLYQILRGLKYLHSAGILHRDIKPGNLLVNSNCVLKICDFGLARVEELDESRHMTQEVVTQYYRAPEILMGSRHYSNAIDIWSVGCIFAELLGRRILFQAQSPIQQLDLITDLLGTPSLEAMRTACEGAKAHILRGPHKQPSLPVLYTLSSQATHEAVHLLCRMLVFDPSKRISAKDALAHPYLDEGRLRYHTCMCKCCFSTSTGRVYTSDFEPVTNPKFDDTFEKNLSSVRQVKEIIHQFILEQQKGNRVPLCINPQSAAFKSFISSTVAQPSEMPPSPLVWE

[7] = biological target: Serine/threonine-protein kinase MRCK beta (Homo sapiens) (UniProt Q9Y5S2)
[8] = biological target: Serine/threonine-protein kinase WNK4 (Homo sapiens) (UniProt Q96J92)
[9] = biological target: T4, Tyrosine-protein kinase Mer (Homo sapiens) (UniProt Q12866)
T4 sequence (whole entry): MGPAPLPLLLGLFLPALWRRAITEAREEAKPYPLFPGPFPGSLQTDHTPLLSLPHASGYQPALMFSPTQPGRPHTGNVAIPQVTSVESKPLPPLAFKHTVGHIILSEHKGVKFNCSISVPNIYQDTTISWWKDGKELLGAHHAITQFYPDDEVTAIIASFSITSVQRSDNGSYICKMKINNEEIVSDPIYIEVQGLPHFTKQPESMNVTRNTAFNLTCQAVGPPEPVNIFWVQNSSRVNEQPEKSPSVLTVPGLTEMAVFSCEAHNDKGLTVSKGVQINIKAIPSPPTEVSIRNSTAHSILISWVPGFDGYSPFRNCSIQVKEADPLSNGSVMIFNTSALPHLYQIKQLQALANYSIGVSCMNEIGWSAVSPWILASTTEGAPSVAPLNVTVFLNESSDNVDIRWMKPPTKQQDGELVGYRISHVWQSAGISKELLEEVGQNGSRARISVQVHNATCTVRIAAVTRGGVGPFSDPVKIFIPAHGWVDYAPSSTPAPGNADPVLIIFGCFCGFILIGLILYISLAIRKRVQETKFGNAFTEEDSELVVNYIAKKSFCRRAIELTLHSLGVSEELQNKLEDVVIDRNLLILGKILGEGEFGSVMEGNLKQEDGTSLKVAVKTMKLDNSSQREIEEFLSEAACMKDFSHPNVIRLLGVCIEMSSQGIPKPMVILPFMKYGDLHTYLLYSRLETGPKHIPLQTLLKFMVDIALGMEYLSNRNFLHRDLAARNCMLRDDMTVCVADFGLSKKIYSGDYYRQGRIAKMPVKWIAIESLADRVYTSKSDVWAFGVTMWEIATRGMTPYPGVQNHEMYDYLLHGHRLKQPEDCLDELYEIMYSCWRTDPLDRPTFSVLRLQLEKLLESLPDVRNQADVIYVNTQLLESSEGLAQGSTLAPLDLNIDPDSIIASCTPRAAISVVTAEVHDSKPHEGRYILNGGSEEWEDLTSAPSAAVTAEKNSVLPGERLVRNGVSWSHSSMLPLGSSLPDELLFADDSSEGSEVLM

[10] = Compound concentration 100.0 nM
[11] = Compound concentration 1000.0 nM

Measured: residual activity

Sequence of Calcium/calmodulin-dependent protein kinase type 1G (Homo sapiens) (Q96NX5 whole entry): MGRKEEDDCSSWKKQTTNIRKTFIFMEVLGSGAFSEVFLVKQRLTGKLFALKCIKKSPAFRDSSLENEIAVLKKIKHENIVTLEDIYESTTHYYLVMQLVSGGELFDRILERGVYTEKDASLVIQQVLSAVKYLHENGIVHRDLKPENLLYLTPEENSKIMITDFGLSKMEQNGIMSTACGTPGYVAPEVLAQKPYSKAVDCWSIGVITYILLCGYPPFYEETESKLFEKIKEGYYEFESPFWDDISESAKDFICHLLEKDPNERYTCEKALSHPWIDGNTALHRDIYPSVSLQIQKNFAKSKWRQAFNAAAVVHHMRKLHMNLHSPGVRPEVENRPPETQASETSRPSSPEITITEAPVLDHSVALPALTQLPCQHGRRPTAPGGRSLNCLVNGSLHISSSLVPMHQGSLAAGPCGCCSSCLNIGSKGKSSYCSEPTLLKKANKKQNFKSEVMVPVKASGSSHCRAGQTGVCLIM
Sequence of Serine/threonine-protein kinase MRCK beta (Homo sapiens) (Q9Y5S2 whole entry): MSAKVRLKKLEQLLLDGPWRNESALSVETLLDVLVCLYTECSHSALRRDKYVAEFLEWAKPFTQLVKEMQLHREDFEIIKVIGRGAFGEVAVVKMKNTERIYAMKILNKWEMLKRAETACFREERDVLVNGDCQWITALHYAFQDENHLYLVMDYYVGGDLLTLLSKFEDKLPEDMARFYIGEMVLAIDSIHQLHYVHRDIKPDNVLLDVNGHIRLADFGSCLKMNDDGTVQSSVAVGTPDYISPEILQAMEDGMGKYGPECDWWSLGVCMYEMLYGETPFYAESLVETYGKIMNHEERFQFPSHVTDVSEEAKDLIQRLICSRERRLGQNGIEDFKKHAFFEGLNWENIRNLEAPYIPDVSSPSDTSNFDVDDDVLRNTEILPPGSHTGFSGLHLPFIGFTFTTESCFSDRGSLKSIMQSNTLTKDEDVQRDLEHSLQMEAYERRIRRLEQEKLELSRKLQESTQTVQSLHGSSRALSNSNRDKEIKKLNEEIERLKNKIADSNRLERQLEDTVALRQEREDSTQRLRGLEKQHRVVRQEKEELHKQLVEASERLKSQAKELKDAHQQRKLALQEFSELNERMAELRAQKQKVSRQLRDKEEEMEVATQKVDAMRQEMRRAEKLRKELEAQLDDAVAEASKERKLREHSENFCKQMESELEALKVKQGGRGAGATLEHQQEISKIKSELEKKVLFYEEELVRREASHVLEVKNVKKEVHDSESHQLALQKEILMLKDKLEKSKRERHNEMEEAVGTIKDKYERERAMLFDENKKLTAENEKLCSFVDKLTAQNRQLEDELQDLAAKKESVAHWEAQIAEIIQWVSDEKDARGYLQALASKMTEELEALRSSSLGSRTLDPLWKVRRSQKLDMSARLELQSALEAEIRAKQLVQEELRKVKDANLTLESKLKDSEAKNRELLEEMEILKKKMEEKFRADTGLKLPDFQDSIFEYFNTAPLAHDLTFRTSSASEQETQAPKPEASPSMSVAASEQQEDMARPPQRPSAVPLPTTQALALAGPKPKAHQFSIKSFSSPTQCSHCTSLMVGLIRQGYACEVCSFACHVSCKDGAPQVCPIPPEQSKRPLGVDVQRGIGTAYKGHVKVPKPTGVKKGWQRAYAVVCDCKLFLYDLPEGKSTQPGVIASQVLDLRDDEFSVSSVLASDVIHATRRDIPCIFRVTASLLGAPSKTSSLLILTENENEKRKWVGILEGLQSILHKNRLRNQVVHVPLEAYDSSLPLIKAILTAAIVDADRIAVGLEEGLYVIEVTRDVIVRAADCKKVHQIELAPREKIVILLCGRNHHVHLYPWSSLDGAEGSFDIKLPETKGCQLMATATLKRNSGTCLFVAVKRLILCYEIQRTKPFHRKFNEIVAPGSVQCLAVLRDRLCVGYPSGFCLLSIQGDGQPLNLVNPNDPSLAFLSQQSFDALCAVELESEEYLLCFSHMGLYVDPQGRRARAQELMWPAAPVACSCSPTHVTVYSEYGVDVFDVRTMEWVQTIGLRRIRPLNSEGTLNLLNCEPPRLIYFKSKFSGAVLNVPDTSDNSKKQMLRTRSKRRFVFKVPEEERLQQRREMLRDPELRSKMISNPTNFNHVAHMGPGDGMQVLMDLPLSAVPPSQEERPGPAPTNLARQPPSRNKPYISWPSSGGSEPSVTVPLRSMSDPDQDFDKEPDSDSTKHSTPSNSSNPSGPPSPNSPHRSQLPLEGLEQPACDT
Sequence of Serine/threonine-protein kinase WNK4 (Homo sapiens) (Q96J92 whole entry): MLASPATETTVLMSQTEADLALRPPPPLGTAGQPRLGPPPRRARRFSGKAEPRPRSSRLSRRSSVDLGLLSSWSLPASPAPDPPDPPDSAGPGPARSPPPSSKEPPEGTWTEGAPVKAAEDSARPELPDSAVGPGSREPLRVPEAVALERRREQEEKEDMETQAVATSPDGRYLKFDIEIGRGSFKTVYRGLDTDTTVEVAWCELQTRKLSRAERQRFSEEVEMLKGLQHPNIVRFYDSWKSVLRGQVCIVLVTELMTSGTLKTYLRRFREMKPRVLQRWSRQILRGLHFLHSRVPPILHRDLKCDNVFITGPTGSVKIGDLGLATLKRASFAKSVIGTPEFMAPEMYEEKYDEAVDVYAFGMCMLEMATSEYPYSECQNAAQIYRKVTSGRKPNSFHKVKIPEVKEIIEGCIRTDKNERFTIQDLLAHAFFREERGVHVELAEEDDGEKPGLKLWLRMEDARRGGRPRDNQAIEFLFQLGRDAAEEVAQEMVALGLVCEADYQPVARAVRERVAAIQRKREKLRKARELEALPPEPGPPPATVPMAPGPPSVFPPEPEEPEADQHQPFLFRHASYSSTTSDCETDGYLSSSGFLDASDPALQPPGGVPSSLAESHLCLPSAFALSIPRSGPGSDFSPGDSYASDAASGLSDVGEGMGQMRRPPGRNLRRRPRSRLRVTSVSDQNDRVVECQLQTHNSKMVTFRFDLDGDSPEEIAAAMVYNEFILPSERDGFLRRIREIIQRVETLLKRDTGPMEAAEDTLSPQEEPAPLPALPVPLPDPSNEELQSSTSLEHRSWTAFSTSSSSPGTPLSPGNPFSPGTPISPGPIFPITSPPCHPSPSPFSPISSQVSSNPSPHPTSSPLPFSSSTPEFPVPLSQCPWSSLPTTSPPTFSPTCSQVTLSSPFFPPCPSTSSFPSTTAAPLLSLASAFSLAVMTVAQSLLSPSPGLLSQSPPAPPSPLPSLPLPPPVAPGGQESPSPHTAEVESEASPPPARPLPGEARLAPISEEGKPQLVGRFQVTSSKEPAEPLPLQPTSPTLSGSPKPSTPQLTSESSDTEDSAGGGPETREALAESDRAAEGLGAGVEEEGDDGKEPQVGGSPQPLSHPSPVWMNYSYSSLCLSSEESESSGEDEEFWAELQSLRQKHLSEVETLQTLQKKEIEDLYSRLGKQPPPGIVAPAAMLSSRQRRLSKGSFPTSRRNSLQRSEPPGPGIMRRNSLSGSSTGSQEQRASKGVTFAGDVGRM
Sequence of eIF-2-alpha kinase GCN2 (Homo sapiens), Q9P2K8 [S808G] (Q9P2K8 whole entry S808G): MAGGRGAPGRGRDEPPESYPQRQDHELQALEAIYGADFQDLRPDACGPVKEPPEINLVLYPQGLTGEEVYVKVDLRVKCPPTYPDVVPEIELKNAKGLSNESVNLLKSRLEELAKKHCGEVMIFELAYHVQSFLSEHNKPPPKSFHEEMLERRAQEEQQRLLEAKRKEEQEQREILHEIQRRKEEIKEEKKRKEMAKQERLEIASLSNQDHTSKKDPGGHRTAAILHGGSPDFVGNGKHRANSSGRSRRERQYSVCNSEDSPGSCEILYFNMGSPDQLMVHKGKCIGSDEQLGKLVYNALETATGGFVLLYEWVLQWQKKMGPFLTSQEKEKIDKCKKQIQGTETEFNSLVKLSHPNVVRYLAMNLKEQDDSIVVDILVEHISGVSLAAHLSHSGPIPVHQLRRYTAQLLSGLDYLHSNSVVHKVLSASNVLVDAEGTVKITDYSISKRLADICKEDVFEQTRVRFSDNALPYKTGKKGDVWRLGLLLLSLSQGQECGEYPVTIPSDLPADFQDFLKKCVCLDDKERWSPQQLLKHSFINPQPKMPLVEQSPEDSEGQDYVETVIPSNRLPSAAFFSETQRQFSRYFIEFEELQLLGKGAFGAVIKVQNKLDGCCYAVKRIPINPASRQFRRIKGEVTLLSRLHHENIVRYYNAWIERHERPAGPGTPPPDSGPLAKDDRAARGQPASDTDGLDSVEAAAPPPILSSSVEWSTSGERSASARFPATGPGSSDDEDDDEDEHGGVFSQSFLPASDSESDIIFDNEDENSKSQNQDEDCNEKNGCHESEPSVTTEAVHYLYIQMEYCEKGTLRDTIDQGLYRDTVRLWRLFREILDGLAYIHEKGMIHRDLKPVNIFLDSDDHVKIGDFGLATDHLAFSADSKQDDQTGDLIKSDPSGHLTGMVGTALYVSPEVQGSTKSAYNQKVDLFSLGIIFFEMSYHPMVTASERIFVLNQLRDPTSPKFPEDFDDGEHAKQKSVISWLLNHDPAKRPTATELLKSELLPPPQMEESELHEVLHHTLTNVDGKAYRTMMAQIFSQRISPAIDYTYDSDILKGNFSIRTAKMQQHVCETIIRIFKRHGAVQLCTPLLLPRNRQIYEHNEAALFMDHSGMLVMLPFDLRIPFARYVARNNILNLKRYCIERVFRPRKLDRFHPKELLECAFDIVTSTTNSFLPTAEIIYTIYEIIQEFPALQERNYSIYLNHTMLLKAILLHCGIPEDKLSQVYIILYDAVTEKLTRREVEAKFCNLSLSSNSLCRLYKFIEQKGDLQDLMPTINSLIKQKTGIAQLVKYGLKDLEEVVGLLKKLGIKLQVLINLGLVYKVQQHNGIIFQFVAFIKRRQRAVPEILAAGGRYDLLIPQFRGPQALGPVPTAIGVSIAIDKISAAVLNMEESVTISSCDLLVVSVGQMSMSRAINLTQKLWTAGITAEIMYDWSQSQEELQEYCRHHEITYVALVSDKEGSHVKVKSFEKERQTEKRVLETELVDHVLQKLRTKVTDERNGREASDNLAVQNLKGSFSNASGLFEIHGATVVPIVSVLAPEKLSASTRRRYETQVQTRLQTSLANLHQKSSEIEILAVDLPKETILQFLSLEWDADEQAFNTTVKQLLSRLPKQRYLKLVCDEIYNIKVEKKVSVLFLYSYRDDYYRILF

C[C@@H]1CN(c2cc(-c3n[nH]c4ccc(OC5(C)CC5)cc34)ncn2)C[C@H](C)O1 [MLi-2]
inactive: [1]; [10] 90% | [2]; [10] 76% | [3]; [10] 81% | [4]; [10] 91% | [5]; [10] 83% | [6]; [10] 100% | [7]; [10] 93% | [8]; [10] 94% | [9]; [10] 97%

C[C@@H]1CN(c2cc(-c3nn(C)c4ccc(OC5(C)CC5)cc34)ncn2)C[C@H](C)O1 [MLi-2-NC]
inactive: [1]; [11] 96% | [2]; [11] 100% | [3]; [11] 100% | [4]; [11] 82% | [5]; [11] 100% | [6]; [11] 96% | [7]; [11] 100% | [8]; [11] 60% | [9]; [11] 83%
